Series [1] can be described thus: Binding affinity to Pseudomonas aeruginosa LecB by ITC method.
The test system of series [2] is Pseudomonas aeruginosa. The series is described as follows: Induction of filamentous-like and spherical bacterial aggregation in Pseudomonas aeruginosa PAO1 at 6 to 6600 uM by optical microscopy. It is filed as functional, organism-based.
For series [3], the system named is Pseudomonas aeruginosa. The series can be described thus: Induction of filamentous-like and spherical bacterial aggregation in Pseudomonas aeruginosa PAO1 expressing deltalecB mutant at 6 to 6600 uM by optical microscopy. It is filed as functional, organism-based.
The subject of series [4] is Pseudomonas aeruginosa. The series is described as follows: Induction of bacterial aggregation in Pseudomonas aeruginosa PAO1 expressing deltalecB mutant assessed as number of aggregates per 100 uL of PBS cell solution at 100 uM by optical microscopy. It is filed as functional.
Series [5] deals with Pseudomonas aeruginosa. The series can be described thus: Inhibition of Pseudomonas aeruginosa PAO1 adhesion to human A549 cells 25 to 2500 uM. It is filed as functional.
Series [6] concerns Pseudomonas aeruginosa. The series is described as follows: Inhibition of deltalecA mutant expressing Pseudomonas aeruginosa PAO1 adhesion to human A549 cells 25 to 2500 uM. It is filed as functional, organism-based.
Series [7] has as its system Pseudomonas aeruginosa. The series can be described thus: Inhibition of deltalecB mutant expressing Pseudomonas aeruginosa PAO1 adhesion to human A549 cells 25 to 2500 uM. It is filed as functional, organism-based.
Series [8] has as its system Pseudomonas aeruginosa. The series can be described thus: Inhibition of Pseudomonas aeruginosa PAO1 localization at human A549 cell membranes at 250 to 2500 uM by confocal microscopy. It is filed as functional, organism-based.
Series [9] concerns Pseudomonas aeruginosa. The series can be described thus: Inhibition of biofilm formation of Pseudomonas aeruginosa PAO1 at 0.1 mM after 24 hrs by crystal violet staining. It is filed as functional, organism-based.
Series [10] deals with Pseudomonas aeruginosa. The series can be described thus: Inhibition of biofilm formation of Pseudomonas aeruginosa PAO1 at 5 mM after 24 hrs by crystal violet staining. It is filed as functional, organism-based.
Series [11] has as its system Pseudomonas aeruginosa. The series can be described thus: Effect on growth of Pseudomonas aeruginosa PAO1 at 0.1 to 5 mM after 24 hrs. It is filed as organism-based. The note with it: 5000 µM.
The test system of series [12] is Pseudomonas aeruginosa. The series is described as follows: Inhibition of biofilm formation of Pseudomonas aeruginosa PAO1 expressing deltalecA mutant at 5 mM after 24 hrs by crystal violet staining. It is filed as functional, organism-based.
For series [13], the system named is Pseudomonas aeruginosa. The series is described as follows: Inhibition of biofilm formation of Pseudomonas aeruginosa PAO1 expressing deltalecB mutant at 5 mM after 24 hrs by crystal violet staining. It is filed as functional, organism-based.
Series [14] deals with Pseudomonas aeruginosa. The series is described as follows: Antimicrobial activity Pseudomonas aeruginosa PAO1 infected C57BL6/J mouse lung injury model assessed as reduction in alveolar-capillary permeability using 5 mM compound pre-treated bacteria for infection. It is filed as functional.
Series [15] concerns Pseudomonas aeruginosa. The series can be described thus: Antimicrobial activity Pseudomonas aeruginosa PAO1 infected C57BL6/J mouse lung injury model assessed as reduction in alveolar-capillary permeability using 1 mM compound pre-treated bacteria for infection. It is filed as functional.
The subject of series [16] is Pseudomonas aeruginosa. The series can be described thus: Antimicrobial activity Pseudomonas aeruginosa PAO1 infected C57BL6/J mouse lung injury model assessed as protection against lung infection using 1 to 5 mM compound pre-treated bacteria for infection. It is filed as functional, organism-based.
In series [17] the target is T1, PA-I galactophilic lectin (Pseudomonas aeruginosa (strain ATCC 15692 / PAO1 / 1C / PRS 101 / LMG12228), UniProt Q05097).
T1 sequence (Q05097 whole entry): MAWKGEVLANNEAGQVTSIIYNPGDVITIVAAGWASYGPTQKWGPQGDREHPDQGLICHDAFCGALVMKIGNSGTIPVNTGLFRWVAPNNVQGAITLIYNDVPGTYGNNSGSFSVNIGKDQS
The series can be described thus: Binding affinity to Pseudomonas aeruginosa LecA by ITC method. (In ITC the heat of successive injections is recorded.)

The test system of series [18] is Pseudomonas aeruginosa. The series can be described thus: Induction of bacterial aggregation in Pseudomonas aeruginosa PAO1 at 6 to 5000 uM by optical microscopy. It is filed as functional, organism-based.
For series [19], the system named is Pseudomonas aeruginosa. The series can be described thus: Induction of bacterial aggregation in Pseudomonas aeruginosa PAO1 expressing deltalecA mutant at 6 to 5000 uM by optical microscopy. It is filed as functional, organism-based.
The subject of series [20] is Pseudomonas aeruginosa. The series can be described thus: Induction of bacterial aggregation in Pseudomonas aeruginosa PAO1 expressing deltalecB mutant at 6 to 5000 uM by optical microscopy. It is filed as functional, organism-based.
Series [21] deals with Pseudomonas aeruginosa. The series is described as follows: Induction of bacterial aggregation in Pseudomonas aeruginosa PAO1 assessed as number of aggregates per 100 uL of PBS cell solution at 100 uM by optical microscopy. It is filed as functional.
Series [22] relates to Pseudomonas aeruginosa. The series can be described thus: Induction of bacterial aggregation in Pseudomonas aeruginosa PAO1 expressing deltalecA mutant assessed as number of aggregates per 100 uL of PBS cell solution at 100 uM by optical microscopy. It is filed as functional, organism-based.
Series [23] has as its system Pseudomonas aeruginosa. The series is described as follows: Inhibition of deltalecA mutant expressing Pseudomonas aeruginosa PAO1 adhesion to human A549 cells <250 uM. It is filed as functional, organism-based.
Series [24] deals with Pseudomonas aeruginosa. The series is described as follows: Inhibition of biofilm formation of Pseudomonas aeruginosa PAO1 at 0.1 to 5 mM after 24 hrs by crystal violet staining. It is filed as functional, organism-based.
In series [25] the test system is Pseudomonas aeruginosa. The series is described as follows: Antimicrobial activity Pseudomonas aeruginosa PAO1 infected C57BL6/J mouse lung injury model assessed as effect on alveolar-capillary permeability using 5 mM compound pre-treated bacteria for infection. It is filed as functional, organism-based.
Series [26] deals with Pseudomonas aeruginosa. The series can be described thus: Antimicrobial activity Pseudomonas aeruginosa PAO1 infected C57BL6/J mouse lung injury model assessed as effect on alveolar-capillary permeability using 1 mM compound pre-treated bacteria for infection. It is filed as functional, organism-based.
Series [27] has as its system Pseudomonas aeruginosa. The series can be described thus: Induction of filamentous-like and spherical bacterial aggregation in Pseudomonas aeruginosa PAO1 expressing deltalecA mutant at 6 to 6600 uM by optical microscopy. It is filed as functional, organism-based.
The subject of series [28] is Pseudomonas aeruginosa. The series is described as follows: Inhibition of deltalecA mutant expressing Pseudomonas aeruginosa PAO1 adhesion to human A549 cells 250 to 2500 uM. It is filed as functional, organism-based.
Series [29] relates to Pseudomonas aeruginosa. The series is described as follows: Binding affinity to Pseudomonas aeruginosa LecB at 1.5 mM by ITC method.
In series [30] the target is T2, PA-I galactophilic lectin (Pseudomonas aeruginosa (strain ATCC 15692 / PAO1 / 1C / PRS 101 / LMG12228)) (UniProt Q05097).
T2 sequence (whole entry): T1 sequence (Q05097 whole entry)
The series is described as follows: Binding affinity to Pseudomonas aeruginosa LecA at 1.5 mM by ITC method.

Activity calls are given as the source filed them. The calls are words filed in the database; no cut-off is given here.

As for `C[C@@H]1O[C@@H](OCCOCCOCCn2cc(COc3c4cc(C(C)(C)C)cc3Cc3cc(C(C)(C)C)cc(c3OCc3cn(CCOCCOCCO[C@@H]5O[C@@H](C)[C@@H](O)[C@@H](O)[C@@H]5O)nn3)Cc3cc(C(C)(C)C)cc(c3OCc3cn(CCOCCOCCO[C@@H]5O[C@@H](C)[C@@H](O)[C@@H](O)[C@@H]5O)nn3)Cc3cc(C(C)(C)C)cc(c3OCc3cn(CCOCCOCCO[C@@H]5O[C@@H](C)[C@@H](O)[C@@H](O)[C@@H]5O)nn3)C4)nn2)[C@@H](O)[C@H](O)[C@@H]1O`, binding in series [1] was put at a Kd of 0.048 µM. The result in series [2] and in series [3] was Active. Also, the Activity in [4] is recorded as 50; in series [11] it was “Non-toxic”. The entries for the “inhibition (INH)” value in series [5], in series [14] and in series [15] were 90%, 50% and 50%, respectively. In addition, the inhibition entry in [6], in [8], in series [10], in [12] and in series [13] was “Active” each time. The inhibition result in [7] and in [9] was “inactive” each time. Moreover, the result in [16] was inactive.
With `OCc1cn(CCOCCOCCO[C@@H]2O[C@H](CO)[C@H](O)[C@H](O)[C@H]2O)nn1`, binding in [17] was characterised by a dissociation constant (Kd) of 150 µM.
With `C[C@@H]1O[C@@H](OCCOCCOCCn2cc(CO)nn2)[C@@H](O)[C@H](O)[C@@H]1O`, binding in [1] was characterised by a dissociation constant (Kd) of 0.304 µM.
As for `CO[C@H]1O[C@H](CO)[C@H](O)[C@H](O)[C@H]1O`, the outcome in series [18], in [19], in series [20], in series [21], in series [22] and in series [4] was inactive.
For the compound `CC(C)(C)c1cc2c(OCc3cn(CCOCCOCCO[C@H]4O[C@H](CO)[C@@H](O)[C@H](O)[C@@H]4O)nn3)c(c1)Cc1cc(C(C)(C)C)cc(c1OCc1cn(CCOCCOCCO[C@H]3O[C@H](CO)[C@@H](O)[C@H](O)[C@@H]3O)nn1)Cc1cc(C(C)(C)C)cc(c1OCc1cn(CCOCCOCCO[C@H]3O[C@H](CO)[C@@H](O)[C@H](O)[C@@H]3O)nn1)Cc1cc(C(C)(C)C)cc(c1OCc1cn(CCOCCOCCO[C@H]3O[C@H](CO)[C@@H](O)[C@H](O)[C@@H]3O)nn1)C2`, in [1], the dissociation constant (Kd) (as a rule, the equilibrium constant for the complex coming apart) came out at 2.27 µM. Also, the values for the Activity in [21] and in [4] were 70 and 11, respectively. Further, the inhibition entry in series [12] and in series [13] was “inactive” throughout.
With `CO[C@@H]1O[C@H](CO)[C@H](O)[C@H](O)[C@H]1O`, the result in [18], in series [19], in series [20], in series [21], in series [22] and in series [4] was inactive. Further, the result in series [25] and in series [26] was inactive. Also, the “inhibition (INH)” value in series [5] was determined as 30%. The inhibition result in [23] and in [24] was “inactive” in each case.
`C[C@H]1O[C@@H](OCCOCCOCCn2cc(COc3c4cc(C(C)(C)C)cc3Cc3cc(C(C)(C)C)cc(c3OCc3cn(CCOCCOCCO[C@@H]5O[C@H](CO)[C@H](O)[C@H](O)[C@H]5O)nn3)Cc3cc(C(C)(C)C)cc(c3OCc3cn(CCOCCOCCO[C@@H]5O[C@H](CO)[C@H](O)[C@H](O)[C@H]5O)nn3)Cc3cc(C(C)(C)C)cc(c3OCc3cn(CCOCCOCCO[C@@H]5O[C@H](CO)[C@H](O)[C@H](O)[C@H]5O)nn3)C4)nn2)[C@H](O)[C@@H](O)[C@H]1O`: the affinity in [17], expressed as Kd, was 0.176 µM. The result in series [2] was Active. For the same compound, the result in [27], in series [22] and in [16] was inactive. Besides, the “inhibition (INH)” value is given as 70% in series [5], 50% in series [14] and 50% in [15]. Further, the inhibition result in series [23] and in series [9] was “inactive” each time. In addition, the inhibition result in series [28], in series [8], in series [10], in [12] and in [13] was “Active” throughout. Moreover, the Activity entry in series [11] was “Non-toxic”.
In the case of `CC(C)(C)c1cc2c(OCc3cn(CCOCCOCCO[C@@H]4O[C@H](CO)[C@@H](O)[C@H](O)[C@H]4O)nn3)c(c1)Cc1cc(C(C)(C)C)cc(c1OCc1cn(CCOCCOCCO[C@@H]3O[C@H](CO)[C@@H](O)[C@H](O)[C@H]3O)nn1)Cc1cc(C(C)(C)C)cc(c1OCc1cn(CCOCCOCCO[C@@H]3O[C@H](CO)[C@@H](O)[C@H](O)[C@H]3O)nn1)Cc1cc(C(C)(C)C)cc(c1OCc1cn(CCOCCOCCO[C@@H]3O[C@H](CO)[C@@H](O)[C@H](O)[C@H]3O)nn1)C2`, the outcome in series [21], in [22], in series [4], in series [29] and in series [30] was inactive. The inhibition result in series [24], in [12] and in [13] was “inactive” each time.
As for `CO[C@H]1O[C@H](CO)[C@@H](O)[C@H](O)[C@@H]1O`, the outcome in series [21], in series [22] and in [4] was inactive.
For the compound `CO[C@@H]1O[C@@H](C)[C@@H](O)[C@@H](O)[C@@H]1O`, the outcome in series [18], in [19], in [20], in series [25] and in series [26] was inactive. In addition, the “inhibition (INH)” value in [5] was 65%. Also, the inhibition result in [6] was “Active”. The inhibition entry in [7] and in series [24] was “inactive” in each case.

Source of the values: ChEMBL document CHEMBL3352371, “Antiadhesive properties of glycoclusters against Pseudomonas aeruginosa lung infection” (J Med Chem, 2014).
